Where a SMILES comes first, the peptide text is derived from it. [ ]: non-standard residue; d: D form. dPhe(4-Cl) = N[C@H](Cc1ccc(Cl)cc1)C(=O)O; d2Nal = N[C@H](Cc1ccc2ccccc2c1)C(=O)O; Lys(iPr) = CC(C)NCCCC[C@H](N)C(=O)O; NMeY = CN[C@@H](Cc1ccc(O)cc1)C(=O)O; d3Pal = N[C@H](Cc1cccnc1)C(=O)O

For this data set the following is noted: rat, in vivo.

Method: On day 30, the LHRH agonist Lupron™ (leuprolide) was injected into the rats. Plasma testosterone levels (in ng/ml; indicated by the open boxes in FIG. 2) were determined at various time points as a measure of the activity of the LHRH antagonist in the animal. Plasma levels of PPI-149 (in ng/ml) were also monitored in the animals (indicated by the closed boxes in FIG. 2).

`CC(=O)N[C@H](Cc1ccc2ccccc2c1)C(=O)N[C@H](Cc1ccc(Cl)cc1)C(=O)N[C@H](Cc1cccnc1)C(=O)N[C@@H](CO)C(=O)N(C)[C@@H](Cc1ccc(O)cc1)C(=O)N[C@H](CC(N)=O)C(=O)N[C@@H](CC(C)C)C(=O)N[C@@H](CCCCNC(C)C)C(=O)N1CCC[C@H]1C(=O)N[C@H](C)C(N)=O` [PPI-149, Ac-D-Nal^1,4-Cl-D-Phe^2, D-Pal^3, N-Me-Tyr^5, D-Asn^6, Lys(iPr)^8, D-Ala^10-LHRH] (Ac-[d2Nal][dPhe(4-Cl)][d3Pal]S[NMeY][dN]L[Lys(iPr)]P[dA]-NH2): the “day beyond which PPI-149 could not be detected in plasma” value was about 8 days.

The record behind these values is patent US6699833B1, “Pharmaceutical formulations for sustained drug delivery” (Praecis Pharmaceuticals, Inc., priority 1996, dated 2004).
